From patent EP4534542A1, “THIOSUGAR BASED ISOTHIOCYANATES AND USES THEREOF” (Universidad de Sevilla, priority 2023, dated 2025)
Where two headings read alike, the source gives them in different places.

Key:
[1] = tested on: A549 (human lung adenocarcinoma cells); experiment: Cell viability assay (resazurin), cytotoxic activity against solid tumours; format: cell-based; conditions: for IC50: read-out: IC50 A549 (Lung adenocarcino ma); for S.I. A549 (Selectivity Index): IC50 HaCaT divided by IC50 A549, mean of independent experiments
Protocol: (§1) Cells were grown in Dulbecco's Modified Eagle's Medium (DMEM) supplemented with 100 U/mL penicillin, 100 µg/mL streptomycin and 10% fetal bovine serum. HL60 cell line (acute myeloid leukaemia, AML) was obtained from ATCC. It was cultured in IMDM medium supplemented with 100 U/mL penicillin, 100 µg/mL streptomycin and 10% fetal bovine serum. U937 (AML) and Jurkat cells (ALL) were obtained from DMSZ, Braunschweig, Germany, and ATCC, respectively. They were cultivated in RPMI medium, supplemented with 100 U/mL penicillin, 100 µg/mL streptomycin and 10% fetal bovine serum. […] All cell lines were cultured at 37 ° C with 5% CO2 in a humidified incubator. Cell culture reagents were purchased from Biowest. Exponentially growing cells (3000-6000 cells per well) were seeded in 96-well plates. After 24 hours, cells were treated with the drugs for 72 hours. The cell viability was then estimated with the resazurin assay, a colorimetric technique based on the capability of viable cells to reduce the blue reagent resazurin to the pink-soluble product resorufin. The amount of resorufin produced is proportional to the number of viable cells. Briefly, cells were washed once with phosphate buffered saline (PBS) and 150 µL resazurin (20 µg/mL in medium) was added to each well. […] Cell viability was calculated as a percentage compared to non-treated cells. The results were expressed as the means ± standard error of the mean (SEM). All data are from at least three independent experiments. The selectivity index (S.I.) values were calculated over each cancer cell line as the mean of the IC50 value in the non-malignant cell line (HaCaT) by the IC50 in the respective cancer cell line obtained in each independent experiment.

[2] = tested on: MeWo (human melanoma cells); experiment: as above; format: cell-based; conditions: for IC50: read-out: IC50 MeWo (Melanoma; BRAF WT); for S.I. MeWo (Selectivity Index): IC50 HaCaT divided by IC50 MeWo, mean of independent experiments
Protocol: as §1

[3] = tested on: T24 (human bladder cancer cells); experiment: as above; format: cell-based; conditions: for IC50: read-out: IC50 T24 (Bladder cancer); for S.I. T24 (Selectivity Index): IC50 HaCaT divided by IC50 T24, mean of independent experiments
Protocol: as §1

HaCaT cells = experiment: Cell viability assay (resazurin), cytotoxicity in non-malignant cells; format: cell-based, human; conditions: read-out: IC50 HaCaT (Non-malignant keratinocyte)
Protocol: Cells were grown in Dulbecco's Modified Eagle's Medium (DMEM) supplemented with 100 U/mL penicillin, 100 µg/mL streptomycin and 10% fetal bovine serum. HL60 cell line (acute myeloid leukaemia, AML) was obtained from ATCC. It was cultured in IMDM medium supplemented with 100 U/mL penicillin, 100 µg/mL streptomycin and 10% fetal bovine serum. U937 (AML) and Jurkat cells (ALL) were obtained from DMSZ, Braunschweig, Germany, and ATCC, respectively. They were cultivated in RPMI medium, supplemented with 100 U/mL penicillin, 100 µg/mL streptomycin and 10% fetal bovine serum. […] All cell lines were cultured at 37 ° C with 5% CO2 in a humidified incubator. Cell culture reagents were purchased from Biowest. Exponentially growing cells (3000-6000 cells per well) were seeded in 96-well plates. After 24 hours, cells were treated with the drugs for 72 hours. The cell viability was then estimated with the resazurin assay, a colorimetric technique based on the capability of viable cells to reduce the blue reagent resazurin to the pink-soluble product resorufin. The amount of resorufin produced is proportional to the number of viable cells. Briefly, cells were washed once with phosphate buffered saline (PBS) and 150 µL resazurin (20 µg/mL in medium) was added to each well. The plates were incubated for 3 hours at 37 °C, 5% CO2, and finally optical densities were measured at 540 and 620 nm with a multiwell plate spectrophotometer reader (Multiskan EX Labsystems). Cell viability was calculated as a percentage compared to non-treated cells. The results were expressed as the means ± standard error of the mean (SEM). All data are from at least three independent experiments.

[4] = tested on: Jurkat (Acute lymphoblastic leukaemia); experiment: Antileukemic activity, cell viability (CCK-8 Cell Counting Kit); format: cell-based; conditions: Homo sapiens, 18 h incubation, compounds 0 - 100 µM, read-out: IC50 Cancer cells Jurkat (Acute lymphoblastic leukaemia)
Protocol: (§2) HaCaT cells (human keratinocytes, reference control), A549 (human lung adenocarcinoma cells), MeWo (human melanoma cells) and T24 (human bladder cancer cells) were purchased from Cell Lines Service (CLS). Cells were grown in Dulbecco's Modified Eagle's Medium (DMEM) supplemented with 100 U/mL penicillin, 100 µg/mL streptomycin and 10% fetal bovine serum. HL60 cell line (acute myeloid leukaemia, AML) was obtained from ATCC. It was cultured in IMDM medium supplemented with 100 U/mL penicillin, 100 µg/mL streptomycin and 10% fetal bovine serum. U937 (AML) and Jurkat cells (ALL) were obtained from DMSZ, Braunschweig, Germany, and ATCC, respectively. They were cultivated in RPMI medium, supplemented with 100 U/mL penicillin, 100 µg/mL streptomycin and 10% fetal bovine serum. OPM-2 cell line (MM), was obtained from DMSZ, Braunschweig, Germany and cultured in RPMI medium supplemented with 100 U/mL penicillin, 100 µg/mL streptomycin, 10% fetal bovine serum and 1X GlutaMAXTM. All cell lines were cultured at 37 ° C with 5% CO2 in a humidified incubator. Cell culture reagents were purchased from Biowest.
(§3) For the leukemic cell lines, the CCK-8 Cell Counting Kit (Dojindo Molecular Technologies) was used according to manufacturers instructions. Briefly, 50.000 cells were seeded in each well of a 96 well plate, and they were treated with increased amounts (0 - 100 µM) of each of the compounds, and incubated for 18 h at 37 °C, 5% CO2. After this period, 7 µl of the CCK-8 reagent were added to each well, and cells were further incubated for 2 h at 37 °C, 5% CO2. OD at 450 nm was obtained using a MultiskanTM GO microplate reader (Thermo Fisher Scientific, Waltham, MA, EE.UU). Cell viability in each condition was normalized to the measurement obtained in the non treated samples (100%), and were represented as average ± standard error of the mean (SEM).

[5] = tested on: HL60 (Acute myeloid leukaemia); experiment: as above; format: cell-based; conditions: Homo sapiens, HL-60; 18 h incubation, compounds 0 - 100 µM; read-out: IC50 Cancer cells HL60 (Acute myeloid leukaemia)
Protocol: as §2, §3

[6] = tested on: U937 (Acute myeloid leukaemia); experiment: as above; format: cell-based; conditions: Homo sapiens, U-937; 18 h incubation, compounds 0 - 100 µM; read-out: IC50 Cancer cells U937 (Acute myeloid leukaemia)
Protocol: as §2, §3

OPM-2 (Multiple myeloma) = experiment: as above; format: cell-based; conditions: Homo sapiens, 18 h incubation, compounds 0 - 100 µM, read-out: IC50 Cancer cells OPM-2 (Multiple myeloma)
Protocol: as §2, §3

[7] = Homo sapiens, A549, 72 h treatment, resazurin assay, mean ± SEM
[8] = Homo sapiens, MeWo, 72 h treatment, resazurin assay, mean ± SEM
[9] = Homo sapiens, 72 h treatment, resazurin assay, mean ± SEM
[10] = Homo sapiens, HaCaT, 72 h treatment, resazurin assay, mean ± SEM
[11] = 72 h treatment, resazurin assay, mean ± SEM

Compound	IC50 [1, 7] [µM]	S.I. A549 (Selectivity Index) [1]	IC50 [2, 8] [µM]	S.I. MeWo (Selectivity Index) [2]	IC50 [3, 9] [µM]	S.I. T24 (Selectivity Index) [3]	IC50 (HaCaT cells; [10]) [µM]	IC50 [4] [µM]	IC50 [5] [µM]	IC50 [6] [µM]	IC50 ([1]; Homo sapiens, A549, 72 h) [µM]	IC50 ([2]; Homo sapiens, MeWo, 72 h) [µM]	IC50 ([3]; Homo sapiens, 72 h) [µM]	IC50 (HaCaT cells; Homo sapiens, HaCaT, 72 h) [µM]	IC50 (OPM-2 (Multiple myeloma)) [µM]	IC50 [1, 11] [µM]	IC50 [2, 11] [µM]	IC50 [3, 11] [µM]	IC50 (HaCaT cells; [11]) [µM]
CC[S@@+]([O-])[C@H]1O[C@H](COC(C)=O)[C@@H](OC(C)=O)[C@H](N=C=S)[C@H]1OC(C)=O [(RS)-17α, Ethyl 2,4,6-tri-O-acetyl-3-isothiocyanato-1,3-dideoxy-1[(R)-sulfinyl]-α-D-glucopyranse]	108 ± 25.7	> 1.1	113 ± 39.2	> 1.1	65.6 ± 13.3	> 1.6	> 100	38.1	50.3	41.2	–	–	–	–	–	–	–	–	–
CSCCCN=C=S [Compound 4, (3-isothiocyanatopropyl)(methyl)sulfane, reference compound]	–	–	–	–	–	–	–	8.9	9	–	31.1 ± 7.6	31.6 ± 5.7	14.4 ± 1.1	43.9 ± 3.2	12	–	–	–	–
CC(=O)OC[C@H]1O[C@H]([S@+]([O-])c2ccccc2)[C@H](OC(C)=O)[C@@H](N=C=S)[C@@H]1OC(C)=O [(RS)-18α, Phenyl 2,4,6-tri-O-acetyl-3-isothiocyanato-1,3-dideoxy-1[(R)-sulfinyl]-α-D-glucopyranose]	55.7 ± 8.4	1.1±0.4	55.3 ± 7.6	1.0±0.4	48.6 ± 8.6	1.3±0.5	51 ± 17.6	46.3	7.4	~47.3	–	–	–	–	19.6	–	–	–	–
CC[S@+]([O-])[C@@H]1O[C@H](COC(C)=O)[C@@H](OC(C)=O)[C@H](N=C=S)[C@H]1OC(C)=O [(SS)-17β, Ethyl 2,4,6-tri-O-acetyl-3-isotiocianato-1,3-dideoxy-1[(S)-sulfinyl]-β-D-glucopyranose]	56.4 ± 6.6	1.5±0.1	51.5 ± 7.9	1.7±0.0	42.3 ± 3.2	2.0±0.2	85.2 ± 12.7	89.5	~25.3	45.6	–	–	–	–	52.4	–	–	–	–
CC(=O)OC[C@H]1O[C@H](S(=O)(=O)c2ccccc2)[C@H](OC(C)=O)[C@@H](N=C=S)[C@@H]1OC(C)=O [Compound 21α, Phenyl 2,4,6-tri-O-acetyl-3-isothiocyanato-1,3-dideoxy-1-sulfonyl-α-D-glucopyranose]	–	1.9±0.2	–	2.0±0.3	–	2.4±0.4	–	–	–	–	22.9 ± 3.7	22.9 ± 5.9	18.5 ± 0.6	45 ± 8.9	–	–	–	–	–
C[S+]([O-])CCCCN=C=S (centres unmarked) [SFN, sulforaphane, reference compound]	10.6 ± 2.1	1.7 ± 0.2	12.9 ± 4.2	1.7±0.4	6.3 ± 0.2	2.6±0.3	16.6 ± 2.4	–	–	–	–	–	–	–	–	–	–	–	–
CC(=O)OC[C@H]1O[C@@H]([S@+]([O-])c2ccccc2)[C@H](OC(C)=O)[C@@H](N=C=S)[C@@H]1OC(C)=O [(RS)-18β, Phenyl 2,4,6-tri-O-acetyl-3-isotiocianato-1,3-dideoxy-1[(R)-sulfinyl]-β-D-glucopyranose]	21.9 ± 2.5	1.7±0.2	21.9 ± 2.9	1.8±0.2	17.2 ± 1.2	2.2±0.4	39.4 ± 8.7	–	–	–	–	–	–	–	–	–	–	–	–
N.N.[Cl][Pt][Cl] [Cisplatin, reference compound]	–	–	–	–	–	–	–	–	–	–	–	–	–	–	–	13.5 ± 2.7	2.2 ± 1.1	1.6 ± 0.5	2.1 ± 0.7
CC(=O)OC[C@H]1O[C@@H](Sc2ccccc2)[C@H](OC(C)=O)[C@@H](N=C=S)[C@@H]1OC(C)=O [Compound 15β, Phenyl 2,4,6-tri-O-acetyl-3-isothiocyanato-1,3-dideoxy-1-thio-β-D-glucopyranoside]	32.2 ± 10.2	1.3±0.1	30.2 ± 9.5	1.1±0.0	27.1 ± 8.7	1.2±0.1	32.2 ± 10.2	–	–	–	–	–	–	–	–	–	–	–	–
